# Reference: the supplement of paper PMC13380429
# Assays:
# Conditions in all cases: 72 h
# U2OS [1] = test: drug sensitivity score (DSS) for viability; higher = more toxic; extreme values may be limits of the assay
# Calu-3 [2] = test: as above
# HepG2 [3] = test: as above
# Caco-2 [4] = test: as above
# Vero E6 [5] = test: as above
# U2OS [6] = test: cell viability relative to DMSO; higher = less toxic
# Calu-3 [7] = test: as above
# HepG2 [8] = test: as above
# Caco-2 [9] = test: as above
# Vero E6 [10] = test: as above
# U2OS [11] = test: relative viability EC50 (midpoint between 100% and the lowest measured viability); higher = less toxic
# Calu-3 [12] = test: as above
# HepG2 [13] = test: as above
# Caco-2 [14] = test: as above
# Vero E6 [15] = test: as above
Structure (SMILES),drug sensitivity score (U2OS [1]),drug sensitivity score (Calu-3 [2]),drug sensitivity score (HepG2 [3]),drug sensitivity score (Caco-2 [4]),drug sensitivity score (Vero E6 [5]),cell viability (U2OS [6]; 1 nM),cell viability (U2OS [6]; 10 nM),cell viability (U2OS [6]; 100 nM),cell viability (U2OS [6]; 1000 nM),cell viability (U2OS [6]; 10000 nM),cell viability (Calu-3 [7]; 1 nM),cell viability (Calu-3 [7]; 10 nM),cell viability (Calu-3 [7]; 100 nM),cell viability (Calu-3 [7]; 1000 nM),cell viability (Calu-3 [7]; 10000 nM),cell viability (HepG2 [8]; 1 nM),cell viability (HepG2 [8]; 10 nM),cell viability (HepG2 [8]; 100 nM),cell viability (HepG2 [8]; 1000 nM),cell viability (HepG2 [8]; 10000 nM),cell viability (Caco-2 [9]; 1 nM),cell viability (Caco-2 [9]; 10 nM),cell viability (Caco-2 [9]; 100 nM),cell viability (Caco-2 [9]; 1000 nM),cell viability (Caco-2 [9]; 10000 nM),cell viability (Vero E6 [10]; 1 nM),cell viability (Vero E6 [10]; 10 nM),cell viability (Vero E6 [10]; 100 nM),cell viability (Vero E6 [10]; 1000 nM),cell viability (Vero E6 [10]; 10000 nM),relative viability EC50 (U2OS [11]),relative viability EC50 (Calu-3 [12]),relative viability EC50 (HepG2 [13]),relative viability EC50 (Caco-2 [14]),relative viability EC50 (Vero E6 [15])
NCC(=O)O [AZD4282],0,0,0,0,0,93.7%,96.7%,100%,98.9%,102%,86.3%,101%,96.3%,102%,97.3%,95.3%,96%,96.6%,102%,101%,99%,104%,86.4%,99.7%,103%,102%,103%,99.3%,104%,100%,> 10 µM,> 10 µM,> 10 µM,> 10 µM,> 10 µM
Cc1ncc(-c2ccnc(Nc3ccc(S(C)(=O)=O)cc3)n2)n1C(C)C [AZD5438],4.8,2.9,8.7,4.4,6.2,104%,105%,108%,102%,10.1%,98.9%,97.1%,104%,106%,38.1%,100%,95%,106%,77.3%,6.7%,97.1%,97.8%,104%,96.8%,27.7%,97.6%,102%,96.4%,91.6%,12.6%,3.29 µM,3.65 µM,1.58 µM,2.84 µM,2.36 µM
COc1cc(C)[nH]c(=O)c1CNC(=O)c1c(C)n([C@H](C)C2CCOCC2)c2ccccc12 [CPI-360],0,0,0,0,0,99.7%,101%,100%,102%,101%,101%,113%,101%,105%,95.7%,107%,97.6%,96.7%,90.7%,92.2%,107%,106%,99.2%,107%,95.7%,108%,102%,108%,96.3%,104%,> 10 µM,> 10 µM,> 10 µM,> 10 µM,> 10 µM
C#Cc1cccc(Nc2ncnc3cc(OC)c(OCCCCCCC(=O)NO)cc23)c1 [CUDC-101],9.6,14.1,14.7,5.4,8.2,97.7%,99.6%,93.4%,68.5%,2%,96.7%,98.8%,81.5%,37.2%,9%,96.3%,110%,94.9%,25.7%,0.1%,97%,89.7%,90.6%,81.8%,39.6%,98.6%,96%,94.6%,80.2%,8.4%,1.41 µM,0.419 µM,0.548 µM,1.55 µM,1.67 µM
COC(=O)c1sccc1S(=O)(=O)Nc1ccc(Nc2ccccc2)cc1OC [GSK0660],0,0,0,0,0,101%,95.4%,98.8%,95.5%,93.5%,106%,102%,101%,93.1%,102%,91.4%,109%,102%,101%,92.6%,96.8%,86.2%,104%,105%,98.9%,91.9%,104%,94.8%,102%,104%,> 10 µM,> 10 µM,> 10 µM,> 10 µM,> 10 µM
CS(=O)(=O)N(Cc1ccco1)C[C@@H](O)Cn1c2ccccc2c2ccccc21 [KL-001],0,0,0,0,0,98.3%,98.4%,99%,93.7%,90%,105%,93.2%,101%,115%,110%,98.9%,104%,97.2%,104%,106%,95.6%,98.5%,102%,94.1%,94.6%,99%,101%,97.6%,100%,98%,> 10 µM,> 10 µM,> 10 µM,> 10 µM,> 10 µM
